Results as given in US11267826B2, “Penicillin-binding protein inhibitors” (priority 2017, dated 2022).

Assays:
[1] = tested on: S. aureus ATCC 29213; experiment: Broth microdilution MIC assay, S. aureus; format: cell-based; conditions: Staphylococcus aureus, ATCC29213; broth microdilution, 16-20 hours at 37° C.; read-out: S. aureus 29213 MIC
Procedure: (§1) To determine the ability of test compounds to potentiate the inhibition of the growth of bacterial strains, classic cell based broth microdilution MIC assays were employed. MIC assays are performed according to CLSI methods except where otherwise noted (CLSI, 2011 and CLSI, 2009). The reference strain S. aureus ATCC 29213 and the hyper-permeable E. coli 901C were used to determine the ability of the PBP compounds to inhibit bacterial growth. Briefly, cryo-preserved bacterial cultures of clinical strains are streaked for isolation on appropriate agar medium, in this case Mueller Hinton II agar. Following incubation to allow formation of colonies these plates are sealed with parafilm and stored refrigerated for up to two weeks. For preparation of assay inocula and to ensure low variability, at least 5 colonies are picked from the agar plates with an inoculating loop and aseptically transferred to a culture tube containing 3 mL of Mueller-Hinton Broth (supplemented with divalent cations to required levels based on Manufacturers' certification). The broth culture is grown for 3-5 hours at 37° C. with shaking at 200 rpm. Meanwhile, 2-fold serial dilutions of test compounds are conducted in a 96 well plate with a final volume of 75 μL per well at 2-fold the final desired concentration. After the dilution plates are set up the growing cultures are then diluted in a cuvette containing MH II broth and the optical density is measured at 600 nm. Inocula are diluted such that 75 μL of this culture in Mueller-Hinton Broth results in a starting bacterial concentration of 5×10^5 CFU/mL when added to the dilution plates. The plates are incubated 16-20 hours at 37° C. The MIC is read visually as the lowest concentration well with no bacterial growth.

[2] = tested on: hyper-permeable E. coli 901C; experiment: Broth microdilution MIC assay, hyper-permeable E. coli; format: cell-based; conditions: Escherichia coli, read-out: E. coli 901C MIC
Procedure: as §1

| Structure (SMILES) | MIC [1] | MIC [2] |
| --- | --- | --- |
| Nc1nc(/C(=N/O)C(=O)N[C@H]2Cc3ccc(O)c(C(=O)O)c3OB2O)cs1 [Example 21, (R,Z)-3-(2-(2-aminothiazol-4-yl)-2-(hydroxyimino)acetamido)-2,7-dihydroxy-3,4-dihydro-2H-benzo[e][1,2]oxaborinine-8-carboxylic Acid] | 64 to 128 µg/mL | > 128 µg/mL |
| CNc1nc(/C(=N/O)C(=O)N(C)[C@H]2Cc3cccc(C(=O)O)c3OB2O)cs1 [Example 22, (R,Z)-2-hydroxy-3-(2-(hydroxyimino)-N-methyl-2-(2-(methylamino)thiazol-4-yl)acetamido)-3,4-dihydro-2H-benzo[e][1,2]oxaborinine-8-carboxylic Acid] | > 128 µg/mL | > 128 µg/mL |
| CNc1nc(/C(=N/OCc2ccccc2)C(=O)N(C)[C@H]2Cc3cccc(C(=O)O)c3OB2O)cs1 [Example 23, (R,Z)-3-(2-((benzyloxy)imino)-N-methyl-2-(2-(methylamino)thiazol-4-yl)acetamido)-2-hydroxy-3,4-dihydro-2H-benzo[e][1,2]oxaborinine-8-carboxylic Acid] | > 128 µg/mL | > 128 µg/mL |
| Nc1nc(/C(=N/O)C(=O)N[C@H]2Cc3ccc(C=O)c(C(=O)O)c3OB2O)cs1 [Example 24, (R,Z)-3-(2-(2-aminothiazol-4-yl)-2-(hydroxyimino)acetamido)-7-formyl-2-hydroxy-3,4-dihydro-2H-benzo[e][1,2]oxaborinine-8-carboxylic Acid] | 64 to 128 µg/mL | > 128 µg/mL |
| Nc1nc(/C(=N/O)C(=O)N[C@H]2Cc3ccc(CN4CCCC4)c(C(=O)O)c3OB2O)cs1 [Example 25, (R,Z)-3-(2-(2-aminothiazol-4-yl)-2-(hydroxyimino)acetamido)-2-hydroxy-7-(pyrrolidin-1-ylmethyl)-3,4-dihydro-2H-benzo[e][1,2]oxaborinine-8-carboxylic Acid] | < 64 µg/mL | > 128 µg/mL |
| Nc1nc(/C(=N/O)C(=O)N[C@H]2Cc3ccc(/C=C/C(=O)O)c(C(=O)O)c3OB2O)cs1 [Example 27, (R)-3-((Z)-2-(2-aminothiazol-4-yl)-2-(hydroxyimino)acetamido)-7-((E)-2-carboxyvinyl)-2-hydroxy-3,4-dihydro-2H-benzo[e][1,2]oxaborinine-8-carboxylic Acid] | > 128 µg/mL | 64 to 128 µg/mL |
| Nc1nc(/C(=N/O)C(=O)N[C@H]2Cc3ccc(CCC(=O)O)c(C(=O)O)c3OB2O)cs1 [Example 28, (R,Z)-3-(2-(2-aminothiazol-4-yl)-2-(hydroxyimino)acetamido)-7-(2-carboxyethyl)-2-hydroxy-3,4-dihydro-2H-benzo[e][1,2]oxaborinine-8-carboxylic Acid] | > 128 µg/mL | > 128 µg/mL |
| Nc1nc(/C(=N/O)C(=O)N[C@H]2Cc3cc(F)cc(C(=O)O)c3OB2O)cs1 [Example 32, (R,Z)-3-(2-(2-aminothiazol-4-yl)-2-(hydroxyimino)acetamido)-6-fluoro-2-hydroxy-3,4-dihydro-2H-benzo[e][1,2]oxaborinine-8-carboxylic Acid] | < 64 µg/mL | < 64 µg/mL |
| Nc1nc(/C(=N/O)C(=O)N[C@H]2Cc3cc(CN4CCCC4)cc(C(=O)O)c3OB2O)cs1 [Example 33, (R,Z)-3-(2-(2-aminothiazol-4-yl)-2-(hydroxyimino)acetamido)-2-hydroxy-6-(pyrrolidin-1-ylmethyl)-3,4-dihydro-2H-benzo[e][1,2]oxaborinine-8-carboxylic Acid] | < 64 µg/mL | > 128 µg/mL |
| Nc1nc(/C(=N/O)C(=O)N[C@H]2Cc3ccc(F)c(C(=O)O)c3OB2O)cs1 [Example 39, (R,Z)-3-(2-(2-aminothiazol-4-yl)-2-(hydroxyimino)acetamido)-7-fluoro-2-hydroxy-3,4-dihydro-2H-benzo[e][1,2]oxaborinine-8-carboxylic Acid] | < 64 µg/mL | < 64 µg/mL |
| Nc1nc(/C(=N/O)C(=O)N[C@H]2Cc3c(F)c(F)cc(C(=O)O)c3OB2O)cs1 [Example 40, (R,Z)-3-(2-(2-aminothiazol-4-yl)-2-(hydroxyimino)acetamido)-5,6-difluoro-2-hydroxy-3,4-dihydro-2H-benzo[e][1,2]oxaborinine-8-carboxylic Acid] | < 64 µg/mL | > 128 µg/mL |
| Nc1nc(/C(=N/O)C(=O)N[C@H]2Cc3cc(O)cc(C(=O)O)c3OB2O)cs1 [Example 43, (R,Z)-3-(2-(2-aminothiazol-4-yl)-2-(hydroxyimino)acetamido)-2,6-dihydroxy-3,4-dihydro-2H-benzo[e][1,2]oxaborinine-8-carboxylic Acid] | < 64 µg/mL | 64 to 128 µg/mL |
| Nc1nc(/C(=N/O)C(=O)N[C@H]2Cc3cc(OC(F)(F)F)cc(C(=O)O)c3OB2O)cs1 [Example 45, (R,Z)-3-(2-(2-aminothiazol-4-yl)-2-(hydroxyimino)acetamido)-2-hydroxy-6-(trifluoromethoxy)-3,4-dihydro-2H-benzo[e][1,2]oxaborinine-8-carboxylic Acid] | < 64 µg/mL | < 64 µg/mL |
| Nc1nc(/C(=N/OC2CCNCC2)C(=O)N[C@H]2Cc3cccc(C(=O)O)c3OB2O)cs1 [Example 51, (R,Z)-3-(2-(2-aminothiazol-4-yl)-2-((piperidin-4-yloxy)imino)acetamido)-2-hydroxy-3,4-dihydro-2H-benzo[e][1,2]oxaborinine-8-carboxylic Acid] | > 128 µg/mL | 64 to 128 µg/mL |
| Nc1nc(/C(=N/OC2CNC2)C(=O)N[C@H]2Cc3cccc(C(=O)O)c3OB2O)cs1 [Example 53, (R,Z)-3-(2-(2-aminothiazol-4-yl)-2-((azetidin-3-yloxy)imino)acetamido)-2-hydroxy-3,4-dihydro-2H-benzo[e][1,2]oxaborinine-8-carboxylic Acid] | > 128 µg/mL | 64 to 128 µg/mL |
| NCCNC(=O)CO/N=C(\C(=O)N[C@H]1Cc2cccc(C(=O)O)c2OB1O)c1csc(N)n1 [Example 54, (R,Z)-3-(2-((2-((2-aminoethyl)amino)-2-oxoethoxy)imino)-2-(2-aminothiazol-4-yl)acetamido)-2-hydroxy-3,4-dihydro-2H-benzo[e][1,2]oxaborinine-8-carboxylic Acid] | > 128 µg/mL | < 64 µg/mL |
| CC(C)(O/N=C(\C(=O)N[C@H]1Cc2cccc(C(=O)O)c2OB1O)c1csc(N)n1)C(=O)N[C@@H](CCC(=O)O)C(=O)O [Example 77, (2-((((Z)-1-(2-aminothiazol-4-yl)-2-(((R)-8-carboxy-2-hydroxy-3,4-dihydro-2H-benzo[e][1,2]oxaborinin-3-yl)amino)-2-oxoethylidene)amino)oxy)-2-methylpropanoyl)-L-glutamic Acid] | > 128 µg/mL | < 64 µg/mL |
| COc1cc2c(c(C(=O)O)c1)OB(O)[C@@H](NC(=O)/C(=N\OC(C)(C)C(=O)O)c1csc(N)n1)C2 [Example 79, (R,Z)-3-(2-(2-aminothiazol-4-yl)-2-(((2-carboxypropan-2-yl)oxy)imino)acetamido)-2-hydroxy-6-methoxy-3,4-dihydro-2H-benzo[e][1,2]oxaborinine-8-carboxylic Acid] | > 128 µg/mL | < 64 µg/mL |
| CC(C)(O/N=C(\C(=O)N[C@H]1Cc2cc(O)cc(C(=O)O)c2OB1O)c1csc(N)n1)C(=O)O [Example 80, (R,Z)-3-(2-(2-aminothiazol-4-yl)-2-(((2-carboxypropan-2-yl)oxy)imino)acetamido)-2,6-dihydroxy-3,4-dihydro-2H-benzo[e][1,2]oxaborinine-8-carboxylic Acid] | > 128 µg/mL | < 64 µg/mL |
